Data from PubChem BioAssay AID1996.
Values after ≈ are worked out from the molar mass of the structure shown.

Settings: buffer; pH 7.4; 200.0 µM
`CN(C)S(=O)(=O)c1cc(NC(=O)COC(=O)CC2Sc3ccccc3NC2=O)ccc1Cl` (stereo not given) showed a solubility kinetic of 12.2 µg/mL (≈ 24.5 µM). In the case of `CCOc1ncccc1C(=O)Nc1ccccc1N1CCOCC1`, the solubility kinetic is reported as greater than 49.1 µg/mL. `Cc1ccc(CN2CCN(C3CCOCC3)CC2CCO)cc1` (stereo not given) showed a solubility kinetic greater than 47.8 µg/mL. In the case of `CN(C)C(=O)c1cc(C(=O)c2ccccc2)c[nH]1`, the solubility kinetic is reported as greater than 36.3 µg/mL. For `Cc1ccccc1OC(C)C(=O)Nc1ccc2c(c1)OCO2` (stereo not given), the solubility kinetic was 38.8 µg/mL (≈ 130 µM). Compound `Cc1cc(C(=O)NCC(=O)Nc2ccc(F)c(F)c2)c(C)o1` has a solubility kinetic of 11.3 µg/mL (≈ 36.7 µM). `Cc1ccc2oc(C(=O)NCC3CCOCC3)c(C)c2c1` gave a solubility kinetic of 42.8 µg/mL (≈ 149 µM). With `COc1ccc(CCC(C)N2CCc3ccccc3C2)cc1` (stereo not given) the solubility kinetic was 39.1 µg/mL (≈ 132 µM). For `Cn1c(N)c(C(=O)COC(=O)C2CCCC2)c(=O)n(C)c1=O`, the solubility kinetic was greater than 46.4 µg/mL. `CC(C)Oc1c(N2CCOCC2)c(=O)c1=O` gave a solubility kinetic greater than 33.8 µg/mL. `COc1cc2sc(C)nc2cc1C` showed a solubility kinetic of 4.8 µg/mL (≈ 24.8 µM). `Cc1cccc(C)c1NC(=O)C1C2C=CC(C2)C1C(=O)O` (stereo not given) showed a solubility kinetic of 39.7 µg/mL (≈ 139 µM). With `COc1ccc(C2C(C#N)=C(N)Oc3cccc(O)c32)cc1` (stereo not given) the solubility kinetic was 9.6 µg/mL (≈ 32.6 µM). `CCOC(=O)c1ccc(S(=O)(=O)N2CCN(C(=O)c3ccccn3)CC2)cc1` gave a solubility kinetic greater than 60.5 µg/mL. `O=C(O)c1ccccc1/C=N/NC(=S)NCc1ccccc1` gave a solubility kinetic greater than 47 µg/mL. For `COc1ccc(Nc2nc3ccccc3n2C)cc1`, the solubility kinetic was 36.5 µg/mL (≈ 144 µM). `Cn1c(C(=O)O)cc2cc(Oc3ccccc3)ccc21` showed a solubility kinetic of 36 µg/mL (≈ 135 µM). Work on `COc1cc(SC)ccc1C(=O)Nc1ccc(C)cc1` yielded a solubility kinetic of 1.6 µg/mL (≈ 5.57 µM). Compound `CC(=O)Nc1ccccc1C(F)(F)F` has a solubility kinetic of 5.5 µg/mL (≈ 27.1 µM). `O=C(Nc1ccc(Br)cn1)c1ccc2ccccc2c1` showed a solubility kinetic of less than 0.4 µg/mL. In the case of `O=C(NC(=S)Nc1cccc2c(O)cccc12)c1ccco1`, the solubility kinetic is reported as 9.3 µg/mL (≈ 29.8 µM). Compound `O=[N+]([O-])c1ccc(Cl)cc1NCc1cccnc1` has a solubility kinetic greater than 39.6 µg/mL. Work on `O=C(NCc1cccnc1)C(=O)Nc1ccc2c(c1)OCO2` yielded a solubility kinetic of 42.7 µg/mL (≈ 143 µM). Compound `COc1cc(C2NC(=O)CCC2[N+](=O)[O-])cc(OC)c1OC` (stereo not given) has a solubility kinetic greater than 46.5 µg/mL. `O=C(Nc1ccc2nc3n(c(=O)c2c1)CCCC3)c1ccccc1F` gave a solubility kinetic of 48 µg/mL (≈ 142 µM). With `CN1CCC(N(C)C(=O)NC2CCCCC2)CC1` the solubility kinetic was greater than 38 µg/mL. In the case of `O=C1CN(C(=O)/C=C/c2ccccc2)CCN1`, the solubility kinetic is reported as greater than 34.5 µg/mL. Work on `Cc1ccc(NC(=O)C=NOCC(=O)Nc2cc(C)cc(C)c2)cc1` yielded a solubility kinetic of 3.5 µg/mL (≈ 10.3 µM). Compound `CCCCCCCCN=Cc1c(O)[nH]c(=O)[nH]c1=O` has a solubility kinetic of 1 µg/mL (≈ 3.74 µM). Compound `Cc1c(C)n(Cc2ccccc2)c2ncnc(NCCN(C)C)c12` has a solubility kinetic greater than 48.5 µg/mL. For `CC(=O)Nc1ccc(S(=O)(=O)N(C)CC(=O)NC2CCCCCCC2)cc1`, the solubility kinetic was greater than 59.3 µg/mL. With `CC(=O)c1cccc(NC(=S)Nc2ccc(F)cc2)c1` the solubility kinetic was 30.3 µg/mL (≈ 105 µM). For `Nc1c(C(=O)O)sc2nc(-c3ccccc3)cc(-c3ccc(F)cc3)c12`, the solubility kinetic was 51.3 µg/mL (≈ 141 µM). With `COc1ccc(OC)c(S(=O)(=O)N2CCCC(C(=O)NCc3ccccn3)C2)c1` (stereo not given) the solubility kinetic was greater than 62.9 µg/mL. In the case of `O=C(c1cccc(OCc2ccccc2)c1)N1CCOCC1`, the solubility kinetic is reported as 42.9 µg/mL (≈ 144 µM). In the case of `Cc1cc(S(=O)(=O)N2CCOCC2)c(C)s1`, the solubility kinetic is reported as greater than 39.2 µg/mL. Compound `Cc1ccc(C)c(C(=O)N2CCN(c3ncccn3)CC2)c1` has a solubility kinetic greater than 44.5 µg/mL. In the case of `COC(=O)N1c2ccccc2CCc2ccccc21`, the solubility kinetic is reported as 36.6 µg/mL (≈ 144 µM). Compound `CCCc1cc(=O)[nH]c(SC/C=C/c2ccccc2)n1` has a solubility kinetic of 1.9 µg/mL (≈ 6.63 µM). In the case of `Cc1ccc(C(=O)NCC(c2ccc(F)cc2)N2CCOCC2)cc1` (stereo not given), the solubility kinetic is reported as 44.4 µg/mL (≈ 130 µM). Work on `CCN1CCN(c2nc(Nc3ccc(OC)cc3)nc(N)c2[N+](=O)[O-])CC1` yielded a solubility kinetic of 49.6 µg/mL (≈ 133 µM). With `O=C(CSc1ncccn1)NC(=O)Cc1ccccc1` the solubility kinetic was greater than 43.1 µg/mL. Work on `CCOC(=O)C1CCCN(C(=O)CSc2nc(C)cc(C)n2)C1` (stereo not given) yielded a solubility kinetic of 41.5 µg/mL (≈ 123 µM). `Cc1nc(Sc2ccc(Cl)cc2)c(C#N)c(C)c1[N+](=O)[O-]` showed a solubility kinetic of less than 0.2 µg/mL. Work on `CC1CN(C(=O)CNC(=O)COc2ccccc2)CC(C)O1` (stereo not given) yielded a solubility kinetic greater than 46 µg/mL. `O=C(COC(=O)c1cccc(OC(F)F)c1)Nc1ncccn1` showed a solubility kinetic of 30.2 µg/mL (≈ 93.4 µM). With `O=C(Nc1ccon1)Nc1cccc(Cl)c1Cl` the solubility kinetic was 1.9 µg/mL (≈ 6.98 µM). With `O=c1[nH]c(/C=C/c2ccc(Br)cc2)nc2ccccc12` the solubility kinetic was 0.8 µg/mL (≈ 2.45 µM). For `CN(Cc1ccccc1)C(=O)COC(=O)CCC(=O)c1ccc(F)cc1`, the solubility kinetic was 14.8 µg/mL (≈ 41.4 µM). Work on `COc1ccc(Nc2nc(N)c([N+](=O)[O-])c(NCc3ccccc3)n2)cc1` yielded a solubility kinetic of less than 0.1 µg/mL. In the case of `COc1ccc(-c2onc(C)c2-c2cscn2)c(O)c1`, the solubility kinetic is reported as greater than 43.2 µg/mL. For `Cc1cc(C(=O)NC2=NCCS2)c2ccccc2n1`, the solubility kinetic was greater than 40.7 µg/mL. `Cc1cnc(C(=O)OCC(=O)Nc2cccc(S(=O)(=O)N3CCOCC3)c2)cn1` showed a solubility kinetic greater than 63.1 µg/mL. `O=C(Nc1ccccc1N1CCOCC1)c1ccc2c(c1)OCO2` gave a solubility kinetic of 4.7 µg/mL (≈ 14.4 µM). Compound `COc1cccc(S(=O)(=O)NCC(=O)N2CCCCCC2)c1` has a solubility kinetic greater than 49 µg/mL. `O=C(N/C(=C/c1ccc(F)cc1)C(=O)N1CCCCC1)c1ccco1` showed a solubility kinetic greater than 51.4 µg/mL. For `NC(=O)c1c(NC(=O)c2ccncc2)sc2c1CCCCCC2`, the solubility kinetic was 7 µg/mL (≈ 21.2 µM). Compound `Cc1cc(C)cc(N(C(C)C(=O)N2CCCC2)S(C)(=O)=O)c1` (stereo not given) has a solubility kinetic greater than 48.7 µg/mL. `CCc1nc2ccccc2c(C(=O)Nc2cc(C)ccc2C)c1C` gave a solubility kinetic of 45.6 µg/mL (≈ 143 µM). For `O=C(COC(=O)c1ccc(O)cc1)Nc1ccc(OC(F)F)cc1`, the solubility kinetic was 29.9 µg/mL (≈ 88.7 µM).
